This note sets out measurements from US7354927B2, “6H-[1]benzopyrano[4,3-b]quinolines and their use as estrogenic agents” (Wyeth, priority 2004, dated 2008).

One series deals with T1, human ERβ (Homo sapiens, UniProt Q92731).
T1 construct: made in house; host or cells: E. coli (crude lysate)
Put plainly: Competition with [3H]-17β-estradiol for binding to the ERβ ligand binding domain. The conditions noted are these: for IC50: E. coli lysate expressing human ERβ LBD, 2 nM [3H]-17β-estradiol, 5-15 hours at room temperature. The method, then: (§1) Representative examples of the invention were evaluated for their ability to compete with 17β-estradiol for both ERα and ERβ. The test procedure used allows one to determine whether a particular compound binds to the estrogen receptor (and is therefore “estrogenic”) and whether there is selectivity for ERα or ERβ. […] The IC50 is defined as the concentration of compound that decreases total 17β-estradiol binding by 50%. The procedure used is briefly described. A crude lysate of E. coil expressing the estrogen receptor ligand binding domains (D, E, and F) of human ERα or ERβ was prepared. Both receptors and compounds were diluted in 1× Dulbecco's phosphate buffered saline (DPBS) supplemented with 1 mM ethylenediamine tetraacetic acid (EDTA). Using a high binding masked microtiter plate, 100 uL of receptor (1 uG/well) was combined with 2 nM [^3H]-17β-estradiol and various concentrations of compound. After between 5 and 15 hours at room temperature, the plates were washed with DPBS/1 mM EDTA and bound radioactivity determined by liquid scintillation counting.

A further series has as its target T2, human ERα (Homo sapiens, UniProt P03372).
T2 construct: made in house; host or cells: E. coli (crude lysate)
T2 sequence (P03372 311-547 limits assumed): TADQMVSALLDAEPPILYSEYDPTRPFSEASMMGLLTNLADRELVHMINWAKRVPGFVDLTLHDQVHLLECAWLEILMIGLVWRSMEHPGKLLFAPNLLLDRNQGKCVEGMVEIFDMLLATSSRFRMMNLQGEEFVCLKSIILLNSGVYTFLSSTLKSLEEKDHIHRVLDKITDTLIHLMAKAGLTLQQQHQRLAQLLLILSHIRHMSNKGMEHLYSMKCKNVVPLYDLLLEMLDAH
As to the kind of experiment: Competition with [3H]-17β-estradiol for binding to the ERα ligand binding domain. The settings on record: E. coli lysate expressing human ERα LBD; 2 nM [3H]-17β-estradiol; 5-15 hours at room temperature. As for the experimental part:
as §1

T1 sequence (Q92731 264-498 limits assumed): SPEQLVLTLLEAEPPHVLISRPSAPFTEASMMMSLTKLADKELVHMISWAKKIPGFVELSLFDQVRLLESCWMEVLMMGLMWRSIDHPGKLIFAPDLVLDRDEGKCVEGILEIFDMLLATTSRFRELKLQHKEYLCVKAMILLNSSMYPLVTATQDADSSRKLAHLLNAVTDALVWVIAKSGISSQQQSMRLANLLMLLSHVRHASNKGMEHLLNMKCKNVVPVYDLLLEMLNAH

As for `COc1ccc2c(c1)OCc1c-2nc2ccc(OC)cc2c1Cl` [Cpd 4, 7-CHLORO-3,9-DIMETHOXY-6H-CHROMENO[4,3-b]QUINOLINE], the melting point (in general, the temperature, or range, at which the solid turns liquid) lay within 190 to 191 °C.
Consider `C#Cc1c2c(nc3ccc(O)cc13)-c1ccc(O)cc1OC2` [Cpd 10, 3,9-DIHYDROXY-7-ETHYNYL-6H-CHROMENO[4,3-b]QUINOLINE], for which the melting point is 220 °C (dec.). At human ERβ, the half-maximal inhibitory concentration (IC50) – broadly, the point on the concentration scale where inhibition reaches its midpoint – is 37 nM and the “α/β receptor selectivity (ratio of ERα IC50 to ERβ IC50)” value turned out to be 3. Moreover, the IC50 on human ERα came out at 131 nM.
The matching figures for `Oc1ccc2c(c1)OCc1c-2nc2ccc(O)cc2c1Cl` [Cpd 6, 7-CHLORO-3,9-DIHYDROXY-6H-CHROMENO[4,3-b]QUINOLINE]: 235 °C (dec.), 3.3 nM, 27 and 88 nM.
In the case of `CCc1c2c(nc3ccc(O)cc13)-c1ccc(O)cc1OC2` [Cpd 11, 3,9-DIHYDROXY-7-ETHYL-6H-CHROMENO[4,3-b]QUINOLINE], the melting point was 145 °C (dec.). Besides, on human ERβ, the half-maximal inhibitory concentration (IC50) worked out at 5 nM and the “α/β receptor selectivity (ratio of ERα IC50 to ERβ IC50)” value is on record as 13. Besides, the IC50 on human ERα came to 66 nM.
`Oc1ccc2c(c1)OCc1c-2nc2ccc(O)cc2c1-c1ccc(C(F)(F)F)cc1` [Cpd 16, 3,9-DIHYDROXY-7-[4-(TRIFLUOROMETHYL)PHENYL]-6H-CHROMENO[4,3-b]QUINOLINE]: the melting point is 175 to 177 °C (dec.). Also, at human ERβ, the half-inhibitory concentration (IC50) was found to be 137 nM and the “α/β receptor selectivity (ratio of ERα IC50 to ERβ IC50)” value worked out at 44. This molecule also returned an IC50 on human ERα of 6090 nM.
Regarding `N#Cc1ccc(-c2c3c(nc4ccc(O)cc24)-c2ccc(O)cc2OC3)cc1` [Cpd 14, 7-(4-CYANOPHENYL)-3,9-DIHYDROXY-6H-CHROMENO[4,3-b]QUINOLINE], the melting point was 295 °C (dec.). In addition, at human ERβ, the IC50 turned out to be 82 nM and the “α/β receptor selectivity (ratio of ERα IC50 to ERβ IC50)” value stood at 17. The IC50 at human ERα is 1420 nM.
For `C[Si](C)(C)C#Cc1c2c(nc3ccc(O)cc13)-c1ccc(O)cc1OC2` [Cpd 9, 3,9-DIHYDROXY-7-[(TRIMETHYLSILYL)ETHYNYL]-6H-CHROMENO[4,3-b]QUINOLINE], in that order: 160 °C (dec.), 225 nM, 0.8 and 169 nM.
The matching figures for `Oc1ccc2c(c1)OCc1c-2nc2ccc(O)cc2c1-c1cccc(Cl)c1` [Cpd 17, 7-(3-CHLOROPHENYL)-3,9-DIHYDROXY-6H-CHROMENO[4,3-b]QUINOLINE]: 162 to 165 °C (dec.), 130 nM, 4 and 505 nM.
Take `COc1ccc(-c2c3c(nc4ccc(O)cc24)-c2ccc(O)cc2OC3)cc1` [Cpd 15, 3,9-DIHYDROXY-7-(4-METHOXYPHENYL)-6H-CHROMENO[4,3-b]QUINOLINE]: the melting point was 195 °C (dec.). On human ERβ, the half-inhibitory concentration (IC50) worked out at 61 nM and the “α/β receptor selectivity (ratio of ERα IC50 to ERβ IC50)” value was determined as 6. This molecule yielded a concentration for half-maximal inhibition (IC50) on human ERα of 357 nM.
`COc1ccc2c(c1)OCc1c-2nc2ccc(OC)cc2c1Br` [Cpd 5, 7-BROMO-3,9-DIMETHOXY-6H-CHROMENO[4,3-b]QUINOLINE] gave a melting point of 196 to 197 °C.
With `COc1cccc(-c2c3c(nc4ccc(O)cc24)-c2ccc(O)cc2OC3)c1` [Cpd 18, 3,9-DIHYDROXY-7-(3-METHOXYPHENYL)-6H-CHROMENO[4,3-b]QUINOLINE], the melting point is 155 to 158 °C (dec.). On human ERβ, the IC50 is 86 nM and the “α/β receptor selectivity (ratio of ERα IC50 to ERβ IC50)” value was 10. On human ERα, this molecule displayed an IC50 of 820 nM.
With `C=Cc1c2c(nc3ccc(O)cc13)-c1ccc(O)cc1OC2` [Cpd 8, 3,9-DIHYDROXY-7-VINYL-6H-CHROMENO[4,3-b]QUINOLINE], the melting point was 160 °C (dec.). Moreover, on human ERβ, the concentration for half-maximal inhibition (IC50) worked out at 31 nM and the “α/β receptor selectivity (ratio of ERα IC50 to ERβ IC50)” value is 18. At human ERα, this molecule had an IC50 of 548 nM.
Turning to `Oc1ccc2c(c1)OCc1c-2nc2ccc(O)cc2c1Br` [Cpd 7, 7-BROMO-3,9-DIHYDROXY-6H-CHROMENO[4,3-b]QUINOLINE], the melting point is 240 °C (dec.). Moreover, on human ERβ, the 50% inhibitory concentration (IC50) is 3.6 nM and the “α/β receptor selectivity (ratio of ERα IC50 to ERβ IC50)” value stood at 18. The molecule further registered an IC50 on human ERα of 63 nM.
Consider `N#Cc1c2c(nc3ccc(O)cc13)-c1ccc(O)cc1OC2` [Cpd 12, 7-CYANO-3,9-DIHYDROXY-6H-CHROMENO[4,3-b]QUINOLINE], for which the IC50 turned out to be 5.6 nM at human ERβ and 40 nM on human ERα. The “α/β receptor selectivity (ratio of ERα IC50 to ERβ IC50)” value on human ERβ is 7.
Turning to `N#Cc1cccc(-c2c3c(nc4ccc(O)cc24)-c2ccc(O)cc2OC3)c1` [Cpd 19, 7-(3-CYANOPHENYL)-3,9-DIHYDROXY-6H-CHROMENO[4,3-b]QUINOLINE], the melting point was 275 °C (dec.). Also, on human ERβ, the IC50 was 150 nM and the “α/β receptor selectivity (ratio of ERα IC50 to ERβ IC50)” value was found to be 8. Also, the IC50 on human ERα was found to be 1130 nM.
Regarding `Oc1ccc2c(c1)OCc1c-2nc2ccc(O)cc2c1-c1ccc(Cl)cc1` [Cpd 13, 7-(4-CHLOROPHENYL)-3,9-DIHYDROXY-6H-CHROMENO[4,3-b]QUINOLINE], the melting point is 215 to 218 °C (dec.). At human ERβ, the IC50 is 160 nM and the “α/β receptor selectivity (ratio of ERα IC50 to ERβ IC50)” value worked out at 19. Further, the concentration for half-maximal inhibition (IC50) at human ERα stood at 3090 nM.
